Measurements taken from patent US9216991B2 (Ares Trading S.A., priority 2012, dated 2015).
Structures can show the parent of a compound that is named as a salt.

Biological target: T1, IRAK4 (Homo sapiens, UniProt Q9NWZ3)
T1 construct: His (N); TEV cleavage site (N)
T1 sequence (Q9NWZ3 1-460): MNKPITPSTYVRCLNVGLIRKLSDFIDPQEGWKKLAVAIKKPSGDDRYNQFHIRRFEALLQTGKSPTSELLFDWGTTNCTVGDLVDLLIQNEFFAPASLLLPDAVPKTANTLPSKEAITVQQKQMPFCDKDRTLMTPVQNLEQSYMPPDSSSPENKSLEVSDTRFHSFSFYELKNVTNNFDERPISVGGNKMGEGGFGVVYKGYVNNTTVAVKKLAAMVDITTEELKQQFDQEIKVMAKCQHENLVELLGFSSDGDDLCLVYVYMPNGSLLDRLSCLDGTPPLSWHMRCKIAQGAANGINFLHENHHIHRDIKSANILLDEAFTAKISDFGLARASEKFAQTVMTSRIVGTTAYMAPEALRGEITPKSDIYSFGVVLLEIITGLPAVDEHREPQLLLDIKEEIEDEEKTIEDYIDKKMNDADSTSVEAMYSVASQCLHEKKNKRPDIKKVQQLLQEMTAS
Assay: IRAK4 Enzymatic Assay
Format: biochemical
Conditions: His-TEV-IRAK4 20 ng/well, ATP 2 μM, STK1-biotin peptide 300 nM, 3 hours at 30° C., FlashPlate radioactivity
In short: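 Radiometric FlashPlate readout: biotin-STK1 substrate (300 nM) captured on streptavidin after EDTA stop and washes. Reaction used His-TEV-IRAK4 (20 ng/well), 2 μM [^33P]-spiked ATP and compound (1 nM-20 μM), incubated 3 h at 30 °C in 50 mM HEPES pH 7.0, 10 mM MgCl2, 5 mM MnCl2, 2 mM DTT.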

IC50 | Compound
0.1 to 1 µM | Cn1cc(-c2cccc(-c3ncc(-c4cnn(C5CCOC5)c4)cn3)c2)cn1 (stereo not shown) [Example 12, 2-[3-(1-Methyl-1H-pyrazol-4-yl)-phenyl]-5-[1-(tetrahydro-furan-3-yl)-1H-pyrazol-4-yl]-pyrimidine]
1 to 5 µM | CN1C[C@H]2CC1CN2C(=O)Cn1cc(-c2cnc(-c3cccc(-c4cnn(C)c4)c3)nc2)cn1 (stereo in doubt) [Example 148, 1-((1R,4R)-5-Methyl-2,5-diaza-bicyclo[2.2.1]hept-2-yl)-2-(4-{2-[3-(1-methyl-1H-pyrazol-4-yl)-phenyl]-pyrimidin-5-yl}-pyrazol-1-yl)-ethanone]
0.1 to 1 µM | CC(=O)N1CC[C@H](n2cc(-c3cnc(-c4cccc(-c5cnn(C)c5)c4)nc3)cn2)[C@@H](O)C1 (single isomer, unassigned) [Example 202]
0.1 to 1 µM | Cn1cc(-c2cccc(-c3ncc(-c4cnn(CC5CNCCO5)c4)cn3)c2)cn1 (stereo not shown) [Example 41, 2-(4-{2-[3-(1-Methyl-1H-pyrazol-4-yl)-phenyl]-pyrimidin-5-yl}-pyrazol-1-ylmethyl)-morpholine hydrochloride]
0.1 to 1 µM | CN(C)C(=O)[C@H]1CC[C@H](n2cc(-c3cnc(-c4cccc(-c5ccc(N)nn5)c4)nc3)cn2)CC1 [Example 239, Trans-4-(4-{2-[3-(6-Amino-pyridazin-3-yl)-phenyl]-pyrimidin-5-yl}-pyrazol-1-yl)-cyclohexanecarboxylic acid dimethylamide]
0.1 to 1 µM | Cn1cc(-c2cccc(-c3ncc(-c4cnn(C5CCNCC5F)c4)cn3)c2)cn1 (stereo not drawn) [Example 30, trans-5-[1-(3-Fluoro-piperidin-4-yl)-1H-pyrazol-4-yl]-2-[3-(1-methyl-1H-pyrazol-4-yl)-phenyl]-pyrimidine hydrochloride]
0.1 to 1 µM | Cn1cc(-c2cccc(-c3ncc(-c4cnn([C@H]5CC[C@@H](O)CC5)c4)cn3)c2)cn1 [Example 196, Cis-4-(4-{2-[3-(1-Methyl-1H-pyrazol-4-yl)-phenyl]-pyrimidin-5-yl}-pyrazol-1-yl)-cyclohexanol]
0.1 to 1 µM | COCC(=O)N1CCC(n2cc(-c3cnc(-c4cccc(-c5cnn(C)c5)c4)nc3)cn2)CC1 [Example 105, 2-Methoxy-1-[4-(4-{2-[3-(1-methyl-1H-pyrazol-4-yl)-phenyl]-pyrimidin-5-yl}-pyrazol-1-yl)-piperidin-1-yl]-ethanone]
< 0.1 µM | CCNC(=O)[C@H]1CC[C@H](n2cc(-c3cnc(-c4cccc(-c5cnn(C)c5)c4)nc3)cn2)CC1 [Example 197, Trans-4-(4-{2-[3-(1-Methyl-1H-pyrazol-4-yl)-phenyl]-pyrimidin-5-yl}-pyrazol-1-yl)-cyclohexanecarboxylic acid ethylamide]
< 0.1 µM | CCN(C)C(=O)[C@H]1CC[C@H](n2cc(-c3cnc(-c4cccc(-c5cnn(C)c5)c4)nc3)cn2)CC1 [Example 204, 4-(4-{2-[3-(1-Methyl-1H-pyrazol-4-yl)-phenyl]-pyrimidin-5-yl}-pyrazol-1-yl)-cyclohexanecarboxylic acid ethyl-methyl-amide]
1 to 5 µM | Cn1cc(-c2cccc(-c3ncc(-c4cnn(CC(=O)O)c4)cn3)c2)cn1 [Example 8]
0.1 to 1 µM | Cn1cc(-c2cccc(-c3ncc(-c4cnn(CC(F)F)c4)cn3)c2)cn1 [Example 67, 5-[1-(2,2-Difluoro-ethyl)-1H-pyrazol-4-yl]-2-[3-(1-methyl-1H-pyrazol-4-yl)-phenyl]-pyrimidine]
1 to 5 µM | Cn1cc(-c2cccc(-c3ncc(-c4cn(C5CCOCC5)nc4C(=O)NCCO)cn3)c2)cn1 [Example 154, 4-{2-[3-(1-Methyl-1H-pyrazol-4-yl)-phenyl]-pyrimidin-5-yl}-1-(tetrahydro-pyran-4-yl)-1H-pyrazole-3-carboxylic acid (2-hydroxy-ethyl)-amide]
< 0.1 µM | Cn1cc(-c2cccc(-c3ncc(-c4cnn([C@H]5CC[C@H](NCCO)CC5)c4)cn3)c2)cn1 [Example 289, 2-trans-[4-(4-{2-[3-(1-Methyl-1H-pyrazol-4-yl)-phenyl]-pyrimidin-5-yl}-pyrazol-1-yl)-cyclohexylamino]-ethano]
0.1 to 1 µM | Cn1cc(-c2cccc(-c3ncc(-c4cnn(C5CCN(C6CCOCC6F)CC5)c4)cn3)c2)cn1 (stereo not drawn) [Example 95, Cis-5-{1-[1-(3-Fluoro-tetrahydro-pyran-4-yl)-piperidin-4-yl]-1H-pyrazol-4-yl}-2-[3-(1-methyl-1H-pyrazol-4-yl)-phenyl]-pyrimidine]
0.1 to 1 µM | Cn1cc(-c2cccc(-c3ncc(-c4cnn(C5CCN([C@H]6CCOC[C@H]6F)CC5)c4)cn3)c2)cn1 [Example 167, 5-{1-[1-((3S,4S)-3-Fluoro-tetrahydro-pyran-4-yl)-piperidin-4-yl]-1H-pyrazol-4-yl}-2-[3-(1-methyl-1H-pyrazol-4-yl)-phenyl]-pyrimidine]
0.1 to 1 µM | COCC(C)NC(=O)Cn1cc(-c2cnc(-c3cccc(-c4cnn(C)c4)c3)nc2)cn1 (stereo not shown) [Example 63]
0.1 to 1 µM | Cn1cc(-c2cccc(-c3ncc(-c4cnn(CC(=O)N5CCOC(CCO)C5)c4)cn3)c2)cn1 (stereo not shown) [Example 75, 1-[2-(2-Hydroxy-ethyl)-morpholin-4-yl]-2-(4-{2-[3-(1-methyl-1H-pyrazol-4-yl)-phenyl]-pyrimidin-5-yl}-pyrazol-1-yl)-ethanone]
0.1 to 1 µM | Cn1cc(-c2cccc(-c3ncc(-c4cnn(CC(=O)N5C[C@@H]6C[C@H]5CO6)c4)cn3)c2)cn1 [Example 92, 2-(4-{2-[3-(1-Methyl-1H-pyrazol-4-yl)-phenyl]-pyrimidin-5-yl}-pyrazol-1-yl)-1-(1S,4S)-2-oxa-5-aza-bicyclo[2.2.1]hept-5-yl-ethanone]
< 0.1 µM | CO[C@H]1CC[C@H](n2cc(-c3cnc(-c4cccc(-c5cnn(C)c5)c4)nc3)cn2)CC1 [Example 253, trans-5-[1-(4-Methoxy-cyclohexyl)-1H-pyrazol-4-yl]-2-[3-(1-methyl-1H-pyrazol-4-yl)-phenyl]-pyrimidine]
0.1 to 1 µM | Cc1ncc(-c2cccc(-c3ncc(-c4cnn(CC(=O)N5CCCC5)c4)cn3)c2)s1 [Example 56, 2-(4-{2-[3-(2-Methyl-thiazol-5-yl)-phenyl]-pyrimidin-5-yl}-pyrazol-1-yl)-1-pyrrolidin-1-yl-ethanone]
< 0.1 µM | Cn1cc(-c2cccc(-c3ncc(-c4cnn([C@H]5CC[C@H](C(=O)NC(C)(C)C)CC5)c4)cn3)c2)cn1 [Example 192, Trans-4-(4-{2-[3-(1-Methyl-1H-pyrazol-4-yl)-phenyl]-pyrimidin-5-yl}-pyrazol-1-yl)-cyclohexanecarboxylic acid tert-butylamide]
0.1 to 1 µM | Cn1cc(-c2cccc(-c3ncc(-c4cnn(C5CCNCC5)c4)cn3)c2)cn1 [Example 1, 2-[3-(1-Methyl-1H-pyrazol-4-yl)-phenyl]-5-(1-piperidin-4-yl-1H-pyrazol-4-yl)-pyrimidine hydrochloride]
0.1 to 1 µM | CN(C)C(=O)[C@H]1CC[C@@H](n2cc(-c3cnc(-c4cccc(-c5cnn(C)c5)c4)nc3)cn2)CC1 [Example 135, Cis-4-(4-{2-[3-(1-Methyl-1H-pyrazol-4-yl)-phenyl]-pyrimidin-5-yl}-pyrazol-1-yl)-cyclohexanecarboxylic acid dimethylamide]
0.1 to 1 µM | Cn1cc(-c2cc(O)cc(-c3ncc(-c4cnn(C5CCNCC5)c4)cn3)c2)cn1 [Example 34, 3-(1-Methyl-1H-pyrazol-4-yl)-5-[5-(1-piperidin-4-yl-1H-pyrazol-4-yl)-pyrimidin-2-yl]-phenol Formate]
